The results in this text go back to patent US9566312B2, “Cyclic peptides and use as medicines” (priority 2012, dated 2017).

The test system of assay [1] is peripheral blood mononuclear cells (PBMC). The experiment in a line: Anti-proliferative or immunosuppressive activity, BrdU incorporation in PHA-stimulated PBMC. The assay is classed as cell-based. The note with it: PHA 3 μg/ml, 60 hour compound treatment; read-out: EMV PBMC IC50. Here is the method: Method 3: Measuring Anti-Proliferative or Immunosuppressive Activity
The potential anti-proliferative activity of compounds on T-cells was analyzed based on the amount of bromodesoxy uridine (BrdU) incorporated into DNA of fresh peripheral blood mononuclear cells (PBMC) using the BrdU ELISA kit (Roche). The assay is performed in 96-well plate format with 30,000 PBMCs seeded per well in X-VIVO 15 medium (Lonza). T-cell proliferation was stimulated by addition of 3 μg/ml phytohemagglutinin (PHA) in PBMCs obtained from two donors.
For orientation: Uptake of a labelled nucleoside into DNA is a usual measure of proliferation.

The next assay concerns the target CypF (Homo sapiens (Human), UniProt P30405). The experiment in a line: Inhibitor binding to cyclophilin proteins by SPR, CypF. The following applies: 1:1 binding model. Here is the method: (§1) Method 1: Measuring Inhibitor Binding to Cyclophilin Proteins
(§2) Binding of inhibitors to expressed cyclophilins was determined using surface plasmon resonance (SPR) experiments. Briefly, avi-tagged cyclophilin proteins with mono-biotinylation were immobilized onto a Biotin CAPture chip (GE Healthcare, cat. #28920234). SPR experiments were carried out on an upgraded Biacore T200 system using a running buffer containing the inhibitor, 10 mM HEPES, pH 7.4, 150 mM NaCl, 0.05% P20, and 3% DMSO. Single-cycle kinetics measurements were used to study the interactions between cyclophilin inhibitors and different cyclophlins. Accordingly, compound at various concentrations was injected to the flow cells with a contact time of 1 min each at a flow rate of 50 μL/min. The final dissociation phase lasts for 10 min following the sample injection. Data was analyzed using Biacore T200 Evaluation Software Version 1.0 and a 1:1 binding model was applied to fit the data to obtain kon, koff, and KD.
For orientation: In SPR one partner is held on a chip, and binding of the other changes the refractive index at the surface.

The subject of assay [2] is genotype 1b subgenomic HCV replicon in Huh7.5 cells. The assay is classed as cell-based, hepatitis C virus. The following applies: genotype 1b replicon, 72 h incubation; read-out: RPLN-1b IC50. Here is the method:
Method 2: Measuring Inhibitory Effects in a HCV Replicon System
Susceptibility to compounds was analyzed in Huh7.5 cells containing genotype 1a or 1b subgenomic HCV replicons co-expressing a luciferase reporter gene. The original replicons, pFK389lucubineo_3_3′_ET and pH/SG-Neo(L+I), were licensed from ReBlicon GmbH (Germany) and Apath LLC (Saint Louis, Mo.), respectively. The firefly reporter gen was replaced by renilla luciferase reporter gene using standard molecular biology techniques as follows.
Generation of genotype 1b subgenomic replicon: The renilla […]-neomycin phosphotransferase cassette was amplified from pF9 cytomegalovirus (CMV) hRluc-Neo Flexi(R) (Promega) by PCR using Accuprime super mix II (Invitrogen) and a primer set of Ascl hRlucNeo Fwd and NotI hRluc Rev. These two primers have the following sequences and introduce restriction sites for subsequent cloning: Ascl hRlucNeo Fwd, 5 […] 3(Ascl site underlined) (SEQ. ID No. 1), and NotI hRluc Rev, 5[…] 3(NotI site underlined) (SEQ ID No. 2). The amplification product was subcloned into pCR2.1-TOPO (Invitrogen). The resulting plasmid was digested with Ascl and NotI, and the excised fragment (hRluc-Neo) was ligated with the Roche Quick Ligation Kit (Roche) into pFK1389lucubineo_3_3′_ET digested with the same enzymes.
The assay medium for both, luciferase reporter HCV replicon and cytotoxicity assays contains phenol red-free DMEM and lacks G418. […] Luciferase activity of compound treated cells is measured relative to DMSO treated cells after 72 h incubation using Renilla-Glo™ Luciferase Assay (Promega). Cytotoxicity (CC50) is analyzed using Cell Titer-Glo™ (Promega).
(In general: A replicon is a self-replicating genome or part of one, used to study replication in cells.)

The next assay deals with cyclophilin A (CypA) (Homo sapiens (Human), UniProt P62937). The experiment in a line: Inhibitor binding to cyclophilin proteins by SPR, CypA. On the set-up: unit not given here. The note with it: 1:1 binding model.
A further assay deals with cyclophilin B (CypB) (Homo sapiens (Human), UniProt P23284). Put plainly: Inhibitor binding to cyclophilin proteins by SPR, CypB. The arrangement: unit not given here. The following applies: 1:1 binding model. Here is the method: as §1, §2
The target in assay [3] is organic anion transporting polypeptide 1B1 (OATP1B1) (Homo sapiens (Human), UniProt Q9Y6L6). Put plainly: OATP assay in CHO-OATP1B1 cells.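 Further: inhibition of probe substrate uptake into the cells, ten minutes exposure, accumulated substrate read by fluorescence once cells were lysed.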

Starred links: 1 amine or outer side, 2 acyl side, 3 side chain; linkers in the order of their positions; H or OH if unused. Non-standard residues stand in square brackets, D forms with d. Residues, ends and D or L forms follow the SMILES beside them. X66 = C[C@H](COCC(=O)N1CCN(C)CC1)[C@@H](C(=O)[*:2])N(C)[*:1]; X82 = C[C@H](COCCN1CCOC[C@@H]1C)[C@@H](C(=O)[*:2])N(C)[*:1]; X36 = C[C@H](COCCN(C)CC(F)(F)F)[C@@H](C(=O)[*:2])N(C)[*:1]; X41 = CC(C)N1CCN(C[C@@H](C)[C@@H](C(=O)[*:2])N(C)[*:1])CC1; X40 = C[C@H](COCC(=O)N1CCNCC1)[C@@H](C(=O)[*:2])N(C)[*:1]; X55 = C[C@H](CN(C)CC(=O)N(C)C)[C@@H](C(=O)[*:2])N(C)[*:1]; X43 = COCCN(C)C[C@@H](C)[C@@H](C(=O)[*:2])N(C)[*:1]; MeBmt = C/C=C/C[C@@H](C)[C@@H](O)[C@H](NC)C(=O)O; NMeL = CN[C@@H](CC(C)C)C(=O)O; NMeV = CN[C@H](C(=O)O)C(C)C; dNMeA = CN[C@H](C)C(=O)O; Abu = CC[C@H](N)C(=O)O

cyclophilin A (CypA), sequence (P62937 whole entry): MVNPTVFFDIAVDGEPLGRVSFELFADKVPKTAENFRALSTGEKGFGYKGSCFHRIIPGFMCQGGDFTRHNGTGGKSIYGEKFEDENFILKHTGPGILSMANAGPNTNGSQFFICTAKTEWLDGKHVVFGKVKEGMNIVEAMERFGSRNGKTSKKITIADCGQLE
CypF, sequence (P30405 30-207): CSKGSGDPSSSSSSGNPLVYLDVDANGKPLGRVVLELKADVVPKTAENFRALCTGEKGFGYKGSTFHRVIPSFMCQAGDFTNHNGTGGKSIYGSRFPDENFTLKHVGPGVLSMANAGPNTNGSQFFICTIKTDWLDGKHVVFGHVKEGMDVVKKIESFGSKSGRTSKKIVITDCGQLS
organic anion transporting polypeptide 1B1 (OATP1B1), sequence (Q9Y6L6 whole entry): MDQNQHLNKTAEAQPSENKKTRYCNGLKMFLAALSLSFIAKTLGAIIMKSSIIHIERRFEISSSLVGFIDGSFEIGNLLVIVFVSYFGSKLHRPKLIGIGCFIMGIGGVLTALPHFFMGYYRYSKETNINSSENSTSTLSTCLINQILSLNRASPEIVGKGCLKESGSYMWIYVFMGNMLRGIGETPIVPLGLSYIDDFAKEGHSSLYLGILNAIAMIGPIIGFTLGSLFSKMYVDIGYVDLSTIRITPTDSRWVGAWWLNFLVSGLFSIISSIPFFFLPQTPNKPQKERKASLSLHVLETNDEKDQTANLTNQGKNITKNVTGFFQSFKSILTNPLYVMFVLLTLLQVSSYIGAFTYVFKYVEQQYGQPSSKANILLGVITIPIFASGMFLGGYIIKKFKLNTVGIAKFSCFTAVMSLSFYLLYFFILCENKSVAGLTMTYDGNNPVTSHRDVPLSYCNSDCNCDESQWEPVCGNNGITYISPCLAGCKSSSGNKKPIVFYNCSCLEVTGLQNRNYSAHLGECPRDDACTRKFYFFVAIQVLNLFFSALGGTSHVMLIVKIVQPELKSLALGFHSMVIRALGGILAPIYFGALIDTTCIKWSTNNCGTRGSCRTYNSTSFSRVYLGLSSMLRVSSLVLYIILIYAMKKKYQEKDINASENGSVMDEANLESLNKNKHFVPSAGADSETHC
cyclophilin B (CypB), sequence (P23284 34-216): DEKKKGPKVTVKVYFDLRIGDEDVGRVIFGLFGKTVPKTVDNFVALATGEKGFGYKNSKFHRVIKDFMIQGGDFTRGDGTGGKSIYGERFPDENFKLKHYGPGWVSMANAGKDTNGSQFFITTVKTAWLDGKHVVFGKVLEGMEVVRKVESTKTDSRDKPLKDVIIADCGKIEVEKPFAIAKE

Broadly, the IC50 is the concentration that gives 50% inhibition. In the case of `C/C=C/C[C@@H](C)[C@@H](O)[C@H]1C(=O)N[C@@H](CC)C(=O)N(C)[C@H](C)C(=O)N(C)[C@@H]([C@H](C)CN2CCN(C(C)C)CC2)C(=O)N[C@@H](C(C)C)C(=O)N(C)[C@@H](CC(C)C)C(=O)N[C@@H](C)C(=O)N[C@H](C)C(=O)N(C)[C@@H](CC(C)C)C(=O)N(C)[C@@H](CC(C)C)C(=O)N(C)[C@@H](C(C)C)C(=O)N1C` [Compound 2.5.12, 3-[D-Ala]-4[(2S,3R)-2-Amino-4-(4-isopropyl-piperazin-1-yl)-butanoyl]-cyclosporin] (cyclo(A[dA][NMeL][NMeL][NMeV][MeBmt][Abu][dNMeA][X41]V[NMeL])), the IC50 turned out to be 3100 nM in assay [1], 44 nM in assay [2] and 2440 nM in assay [3]. The compound also showed a CypF Kd on CypF of 0.4 nM. In addition, the “CypA Kd” value on cyclophilin A (CypA) is listed as 1.0. The “CypB Kd” value at cyclophilin B (CypB) is reported as 0.7.
For `C/C=C/C[C@@H](C)[C@@H](O)[C@H]1C(=O)N[C@@H](CC)C(=O)N(C)[C@H](C)C(=O)N(C)[C@@H]([C@H](C)CN(C)CCOC)C(=O)N[C@@H](C(C)C)C(=O)N(C)[C@@H](CC(C)C)C(=O)N[C@@H](C)C(=O)N[C@H](C)C(=O)N(C)[C@@H](CC(C)C)C(=O)N(C)[C@@H](CC(C)C)C(=O)N(C)[C@@H](C(C)C)C(=O)N1C` [Compound 2.5.22, 3-[D-Ala]-4-[(2S,3R)-4-((2-methoxyethyl)(methyl)amino)-3-methyl-2-(methylamino)butanoyl]-cyclosporin] (cyclo(A[dA][NMeL][NMeL][NMeV][MeBmt][Abu][dNMeA][X43]V[NMeL])), the IC50 in assay [1] was 8900 nM; in assay [2], 41 nM; in assay [3], 1900 nM. For the same compound, the CypF Kd on CypF was 0.9 nM. The “CypA Kd” value at cyclophilin A (CypA) is recorded as 1.7. The “CypB Kd” value on cyclophilin B (CypB) was 0.9.
With `C/C=C/C[C@@H](C)[C@@H](O)[C@H]1C(=O)N[C@@H](CC)C(=O)N(C)[C@H](C)C(=O)N(C)[C@@H]([C@H](C)CN(C)CC(=O)N(C)C)C(=O)N[C@@H](C(C)C)C(=O)N(C)[C@@H](CC(C)C)C(=O)N[C@@H](C)C(=O)N[C@H](C)C(=O)N(C)[C@@H](CC(C)C)C(=O)N(C)[C@@H](CC(C)C)C(=O)N(C)[C@@H](C(C)C)C(=O)N1C` [Compound 2.5.27, 3-[D-Ala]-4-[(2S,3R)-4-((2-(dimethylamino)-2-oxoethyl)(methyl)amino)-3-methyl-2-(methylamino)butanoyl]-cyclosporin] (cyclo(A[dA][NMeL][NMeL][NMeV][MeBmt][Abu][dNMeA][X55]V[NMeL])), the results for the IC50 in assay [1], in assay [2] and in assay [3] were 14800 nM, 26 nM and 2700 nM, respectively. Further, on CypF, the CypF Kd came to 0.8 nM. Besides, the “CypA Kd” value on cyclophilin A (CypA) is recorded as 1.4. Besides, the “CypB Kd” value on cyclophilin B (CypB) is reported as 0.8.
Turning to `C/C=C/C[C@@H](C)[C@@H](O)[C@H]1C(=O)N[C@@H](CC)C(=O)N(C)[C@H](C)C(=O)N(C)[C@@H]([C@H](C)COCCN(C)CC(F)(F)F)C(=O)N[C@@H](C(C)C)C(=O)N(C)[C@@H](CC(C)C)C(=O)N[C@@H](C)C(=O)N[C@H](C)C(=O)N(C)[C@@H](CC(C)C)C(=O)N(C)[C@@H](CC(C)C)C(=O)N(C)[C@@H](C(C)C)C(=O)N1C` [Compound 2.8.3, 3-[D-Ala]-4-[(2S,3S)-3-methyl-4-(2-(methyl(2,2,2-trifluoroethyl)amino)ethoxy)-2-(methylamino)butanoyl]-cyclosporin] (cyclo(A[dA][NMeL][NMeL][NMeV][MeBmt][Abu][dNMeA][X36]V[NMeL])), the CypF Kd on CypF turned out to be 4.1 nM. Further, the “CypA Kd” value on cyclophilin A (CypA) turned out to be 4.4. The “CypB Kd” value at cyclophilin B (CypB) came out at 3.3. In assay [3], the midpoint of inhibition, the IC50, lay at 1900 nM.
`C/C=C/C[C@@H](C)[C@@H](O)[C@H]1C(=O)N[C@@H](CC)C(=O)N(C)[C@H](C)C(=O)N(C)[C@@H]([C@H](C)COCC(=O)N2CCNCC2)C(=O)N[C@@H](C(C)C)C(=O)N(C)[C@@H](CC(C)C)C(=O)N[C@@H](C)C(=O)N[C@H](C)C(=O)N(C)[C@@H](CC(C)C)C(=O)N(C)[C@@H](CC(C)C)C(=O)N(C)[C@@H](C(C)C)C(=O)N1C` [Compound 2.6.1, 3-[D-Ala]-4-[(2S,3S)-3-methyl-2-(methylamino)-4-(2-oxo-2-(piperazin-1-yl)ethoxy)butanoyl]-cyclosporin] (cyclo(A[dA][NMeL][NMeL][NMeV][MeBmt][Abu][dNMeA][X40]V[NMeL])): the CypF Kd at CypF stood at 0.4 nM. The “CypA Kd” value at cyclophilin A (CypA) was found to be 1.0. Further, the “CypB Kd” value at cyclophilin B (CypB) worked out at 0.7. This compound also yielded an IC50 in assay [3] of 6900 nM.
`C/C=C/C[C@@H](C)[C@@H](O)[C@H]1C(=O)N[C@@H](CC)C(=O)N(C)[C@H](C)C(=O)N(C)[C@@H]([C@H](C)COCC(=O)N2CCN(C)CC2)C(=O)N[C@@H](C(C)C)C(=O)N(C)[C@@H](CC(C)C)C(=O)N[C@@H](C)C(=O)N[C@H](C)C(=O)N(C)[C@@H](CC(C)C)C(=O)N(C)[C@@H](CC(C)C)C(=O)N(C)[C@@H](C(C)C)C(=O)N1C` [Compound 2.6.3, 3-[D-Ala]-4-[(2S,3S)-3-methyl-2-(methylamino)-4-(2-(4-methylpiperazin-1-yl)-2-oxoethoxy)butanoyl]-cyclosporin] (cyclo(A[dA][NMeL][NMeL][NMeV][MeBmt][Abu][dNMeA][X66]V[NMeL])) yielded a CypF Kd at CypF of 0.5 nM. Moreover, the “CypA Kd” value at cyclophilin A (CypA) was determined as 1.5. Besides, at cyclophilin B (CypB), the “CypB Kd” value stood at 0.8. This compound yielded an IC50 in assay [3] of 9400 nM.
In the same order, the values of `C/C=C/C[C@@H](C)[C@@H](O)[C@H]1C(=O)N[C@@H](CC)C(=O)N(C)[C@H](CC)C(=O)N(C)[C@@H]([C@H](C)COC)C(=O)N[C@@H](C(C)C)C(=O)N(C)[C@@H](CC(C)C)C(=O)N[C@@H](C)C(=O)N[C@H](C)C(=O)N(C)[C@@H](CC(C)C)C(=O)N(C)[C@@H](CC(C)C)C(=O)N(C)[C@@H](C(C)C)C(=O)N1C` [Compound 3.1, 3-[(R)-2-(methylamino)butanoic acid]-4-[(2S,3S)-4-methoxy-3-methyl-2-(methylamino)butanoyl]-cyclosporin] are 1.9 nM, 3.4, 1.6 and 2100 nM.
In the case of `C/C=C/C[C@@H](C)[C@@H](O)[C@H]1C(=O)N[C@@H](CC)C(=O)N(C)[C@H](C)C(=O)N(C)[C@@H]([C@H](C)COCCN2CCOC[C@@H]2C)C(=O)N[C@@H](C(C)C)C(=O)N(C)[C@@H](CC(C)C)C(=O)N[C@@H](C)C(=O)N[C@H](C)C(=O)N(C)[C@@H](CC(C)C)C(=O)N(C)[C@@H](CC(C)C)C(=O)N(C)[C@@H](C(C)C)C(=O)N1C` [Compound 2.8.6, 3-[D-Ala]-4-[(2S,3S)-3-methyl-2-(methylamino)-4-(2-((S)-3-methylmorpholino)ethoxy)butanoyl]-cyclosporin] (cyclo(A[dA][NMeL][NMeL][NMeV][MeBmt][Abu][dNMeA][X82]V[NMeL])), at CypF, the CypF Kd turned out to be 0.8 nM. Also, the figures for the IC50 in assay [2] and in assay [3] were 13 nM and 4800 nM, respectively. In addition, on cyclophilin A (CypA), the “CypA Kd” value was found to be 1.3. Also, at cyclophilin B (CypB), the “CypB Kd” value stood at 0.9.
